Key:
Type in all cases: cell-based, human
PXB-cells [1] = experiment: Analysis of lipoprotein in culture supernatant (LipoSEARCH gel filtration HPLC) of PXB-cells; conditions: for content of Large-VLDL among the VLDL in the culture supernatant (neutral fat (triglyceride)): Large-VLDL alone changed
Description: The following day of seeding, medium A was removed. Instead, 500 μL of medium B (DMSO (+)) or medium C (DMSO (−)) was added. The plate was gently placed in an incubator (37° C., 5% CO2) and the cells were cultured for 5 days. After completion of culture, an image of the cells was taken by a photomicrographic camera. Then, the culture supernatant was recovered and subjected to analysis for lipoprotein in the culture supernatant described below. Lipoproteins contained in the culture supernatants of PXB-cells, HepG2 cells and HuH7 cells were analyzed by using LipoSEARCH (registered trademark) method (Skylight Biotech, Inc.). After completion of the culture mentioned above, the medium used in the culture was removed and 500 μL of medium D for analysis was added. The culture plate was gently placed in an incubator (37° C., 5% CO2) and the cells were cultured for 2 days. Thereafter, the culture supernatant was recovered, lipoproteins contained in the culture supernatant (80 μL) were fractionated into 4 types of subgroups, CM, VLDL, LDL and HDL fractions, by gel filtration HPLC. Cholesterol and neutral fat (triglyceride) contained in individual fractions were quantified by online enzyme reactions. Concentration analysis was carried out in accordance with the computer program specifically developed by Skylight Biotech, Inc. Note that, in the enzymatic reaction, Diacolor Liquid TG-S (manufactured by Toyobo Co., Ltd.) was used. As standard sera for cholesterol and neutral fat (triglyceride) concentration in CM, VLDL, LDL and HDL, the sera manufactured by Kyowa Hakko Kirin Co., Ltd. were used. PXB-cells were diluted with medium A. The diluted cell suspension (500 μL) was gently poured to individual wells of a culture plate. The plate was allowed to stand still for about 20 minutes until the cells were slightly in contact with the bottom surface of the wells and gently placed to an incubator (37° C., 5% CO2) to culture the cells. The following day of seeding, medium A was removed and 500 μL of medium B (DMSO (+)) was added. The plate was gently placed in an incubator (37° C., 5% CO2) and the cells were cultured for 13 days. After completion of culture, the cells were used in the following test. A medium of PXB-cells prepared above was exchanged with medium D containing 0.75 mM oleic acid, and gently placed in an incubator (37° C., 5% CO2). PXB-cells were cultured for two days. PXB-cells were prepared in the same manner as in the method set forth in “Preparation of cells” in the above step (1-1) except that the period of culture in medium B (DMSO (+)) was set at 6 days and subjected to the following test. The mediums for the PXB-cells prepared above were exchanged with mediums D containing 1 nM or 5 nM lomitapide respectively and gently placed in an incubator (37° C., 5% CO2). PXB-cells were cultured for two days. PXB-cells were prepared in the same manner as in the method set forth in “Preparation of cells” in the above step (1-1) and subjected to the following test. The mediums of the PXB-cells prepared above were exchanged with mediums D containing 10 μM, 50 μM or 100 μM fenofibrate and gently placed in an incubator (37° C., 5% CO2). The PXB-cells were cultured for 2 days. After completion of the culture, cholesterol and neutral fat (triglyceride) in the culture supernatant and cells were measured in accordance with the method described in the above section “Analysis of lipoprotein in culture supernatant” and “Analysis of lipoprotein in cells”, respectively.

PXB-cells [2] = experiment: Analysis of lipoprotein in cells (intracellular triglyceride and cholesterol, Cholestest) of PXB-cells; conditions: 2 days, data not shown
Description: Triglyceride in cells was measured by use of Cholestest (registered trademark) TG (Sekisui Medical Co., Ltd.) in accordance with the instruction by the manufacturer. More specifically, the cells were washed with PBS, and then, completely dewatered (stored at -80° C. until measurement). To each well containing the cells, 200 μL of TG enzyme solution (1) was added. A reaction was allowed to proceed while keeping the cells warm at 37° C. for 10 minutes (free glycerol was removed) Then, the cells were torn away by pipetting, transferred to a centrifuge tube and centrifuged at 10,000 rpm×10 minutes. Then, the supernatant (7.5 μL) was transferred to a 96-well microplate. To this, 68 μL of TG enzyme solution (1) was added and the microplate was kept warm at 37° C. for 10 minutes to remove completely free glycerol. Then, 25 μL of TG enzyme solution (2) was added and kept the plate warm at 37° C. for 10 minutes. The resultant reaction product was subjected to measurement of absorbance at 550 nm. The content of triglyceride was calculated based on HDL-[…] as the reference (triglyceride concentration of HDL-[…] was 52.26 mg/dL). Intracellular cholesterol was measured by use of Cholestest (registered trademark) CHO (Sekisui Medical Co., Ltd.) in accordance with the instruction by the manufacturer. […] The resultant reaction product was subjected to measurement of absorbance at 550 nm. The content of cholesterol was calculated based on HDL-[…] as the standard ([…] of HDL-[…] was 152.67 mg/dL). […] After completion of culture, the total cholesterol and total neutral fat (triglyceride) in culture supernatant and in cells were measured in accordance with the methods described in the sections “Analysis of lipoprotein in culture supernatant” and “Analysis of lipoprotein in cells”. […] After completion of the culture, cholesterol and neutral fat (triglyceride) in the culture supernatant and cells were measured in accordance with the method described in the above sections “analysis of lipoprotein in culture supernatant” and “analysis of lipoprotein in cells”, respectively. […]

PXB-cells [3] = experiment: Observation of fat droplets in PXB-cells by photomicrograph; conditions: 2% DMSO in medium, 5 days culture
Description: The following day of seeding, medium A was removed. Instead, 500 μL of medium B (DMSO (+)) or medium C (DMSO (−)) was added. The plate was gently placed in an incubator (37° C., 5% CO2) and the cells were cultured for 5 days. After completion of culture, an image of the cells was taken by a photomicrographic camera. Then, the culture supernatant was recovered and subjected to analysis for lipoprotein in the culture supernatant described below.

With `O=C(NC1CCN(CCCCC2(C(=O)NCC(F)(F)F)c3ccccc3-c3ccccc32)CC1)c1ccccc1-c1ccc(C(F)(F)F)cc1` [lomitapide] the “VLDL content of the culture supernatant (neutral fat (triglyceride))” value (PXB-cells [1]; 5 nM lomitapide in medium D, 2 days, PXB-cells pre-cultured 6 days in medium B (DMSO (+)), vs ethanol control) was “significantly decreases”, the “content of Large-VLDL among the VLDL in the culture supernatant (neutral fat (triglyceride))” value (PXB-cells [1]; lomitapide in medium D, 2 days) was “significantly decreased” and the “content of neutral fat (triglyceride) in the cells” value (PXB-cells [2]; lomitapide (1 nM or 5 nM)) was “no change”.

For `C[S+](C)[O-]` [DMSO, dimethyl sulfoxide], the “secretion of total neutral fat (triglyceride) in lipoproteins, medium B (DMSO (+)) relative to medium C (DMSO (−))” value (PXB-cells [1]; 2% DMSO in medium, 5 days culture, culture supernatant) was “about 9 times” and the “number of fat droplets in PXB-cells, medium B (DMSO (+)) compared to medium C (DMSO (−))” value (PXB-cells [3]) was “about double”.

For `CCCCCCCC/C=C\CCCCCCCC(=O)O` [oleic acid], the “content of Large-VLDL among the VLDL in the culture supernatant (neutral fat (triglyceride))” value (PXB-cells [1]; 0.75 mM oleic acid in medium D, 2 days) was “significantly increased”, the “VLDL content in the culture supernatant (neutral fat (triglyceride))” value (PXB-cells [1]; 0.75 mM oleic acid in medium D, 2 days, PXB-cells pre-cultured 13 days in medium B (DMSO (+)), vs medium D control) was “significantly increased” and the “content of cholesterol in the culture supernatant” value (PXB-cells [1]; 0.75 mM oleic acid, 2 days, data not shown) was “change similarly to the content of neutral fat (triglyceride)”. For the same molecule, the “content of cholesterol in the cells” value (PXB-cells [2]; 0.75 mM oleic acid) was “change similarly to the content of neutral fat (triglyceride)” and the “content of neutral fat (triglyceride) in the cells” value (PXB-cells [2]; 0.75 mM oleic acid) was “significantly increased”.
